Source: patent EP1708692B1, “DICHLOROACETATE IN COMBINATION WITH AN INOTROPE FOR CARDIOPROTECTION” (The Governors of the University of Alberta, priority 2004, dated 2005)
Values joined by “and” are separate entries in the source; they are usually repeats but may differ in a detail not shown here. Identical values can stand only once. Like-named read-outs stand apart in the source and are kept apart here.

What was measured:
[1] = test system: pediatric patients requiring heart surgery to connect complex congenital heart lesions; assay: Clinical outcome after single DCA bolus: Inotrope Score, ICU time, ventilator time, echocardiography (Example B); assay type: in vivo; details: 50mg/kg bolus, placebo patients 26%
Protocol: This study was a randomized, placebo-controlled, double blinded, single surgeon, study of the use of DCA in 40 high-risk pediatric patients requiring heart surgery to connect complex congenital heart lesions.
In this trial, 40 children were recruited to participate in a single surgeon study, of which 18 received DCA and 22 received placebo. The 1995 power calculations were based on separation of the CPB-1 trial of n = 40 patients.
The intervention involved DCA (50mg/kg) or placebo injected into the aortic root immediately prior to removing aortic cross clamp. The coded solution was made such that a dose of lml/kg provides the appropriate dose of DCA or placebo. Based on the pharmacokinetics of DCA, this was expected to result in plasma levels of DCA in the therapeutic range of (1mM). All blood samples were analyzed by HPLC for DCA concentration.
In both the operating room at the end of cardiopulmonary bypass and in the intensive care unit, parenteral drugs were scored on an hourly basis with 1 point allotted for each level for each bolus or infusion given within the previous hour for the first 24 hours post-operatively. Thus, at the end of 24 hours high scores indicated poorer cardiac function.

[2] = Plasma DCA levels by HPLC after bolus, adult CABG patients (Example A); assay type: in vivo; details: human, 50 mg/kg, following infusion of 50mg/kg Na+ Dichloroacetate via cardiopulmonary bypass pump, 1 hour following administration, n=8
Protocol: (§1) DCA or saline was administered to 18 patients undergoing elective cardiac bypass grafting surgery (CABG) in a double blinded randomized manner DCA (50mg/kg in 100 ml of saline) or placebo was injected into the aortic root, immediately prior to removing aortic cross clamp. Based on the pharmacokinetics of DCA, we anticipated that this would produce a plasma concentration of approximately 1 mM. The study consisted of 8 DCA-treated patients and 10 placebo-treated patients.
(§2) The intervention involved DCA (50mg/kg) or placebo injected into the aortic root immediately prior to removing aortic cross clamp. The coded solution was made such that a dose of lml/kg provides the appropriate dose of DCA or placebo. Based on the pharmacokinetics of DCA, this was expected to result in a plasma level of DCA in the therapeutic range of (1mM). All blood samples were analyzed by HPLC for DCA concentration.
Plasma samples were processed for DCA levels using a high performance liquid chromatography (HPLC) technique that separated the DCA from other plasma constituents. In brief, 20 µl of plasma sample was injected into a Beckman Gold HPLC containing a IonoBpher 5A column (250x4.6mm LxID) and a AX Guard Column. […] The flow rate of the HPLC was set at 3.0 ml/min and the DCA eluted from the column was detected by comparing DCA elution times to acetate, monochloroacetate, and trichloroacetate standards. […]

[3] = Plasma DCA levels by HPLC, bolus and infusion protocol (Example C); assay type: in vivo, pediatric patients; details: human
Protocol: (§3) DCA (50mg/kg) or placebo was injected into the aortic root immediately prior to removing aortic cross clamp. The coded solutions were made such that a dose of 1 ml/kg provided either a DCA therapeutic level of 1mM plasma concentration of DCA, or a placebo solution. Immediately thereafter, an infusion of DCA at 25mg/kg/hr or placebo in the same volume was initiated and run for 24 hours. Based on the pharmacokinetics of DCA, this was expected to maintain plasma levels of DCA in the therapeutic range of (0.2-1mM). However, the plasma concentrations of DCA were below 1mM after the first hour interval, and that the 24 hour plasma concentrations were elevated above 1mM DCA levels at the 24 hour interval, a decision was made to modify the dosing protocol. This change in dosing protocol was approved by the Ethics Committee, but not implemented until patient number 24. All blood samples were analyzed by HPLC for DCA concentration.
(§4) DCA (100mg/kg) or placebo was injected into the aortic root immediately prior to removing aortic cross clamp. The coded solutions were made such that a dose of 1 ml/kg provided either a DCA therapeutic level of 1mM plasma concentration of DCA, or a placebo solution. Immediately thereafter, an infusion of DCA at 12.5mg/kg/hr or placebo in the same volume was initiated and run for 24 hours. Based on the pharmacokinetics of DCA, this was expected to maintain plasma levels of DCA in the therapeutic range of (0.2-1mM). All blood samples were analyzed by HPLC for DCA concentration.
Arterial blood samples were obtained from patients at the following times: • a. Immediately after the insertion of arterial line in operating room (i.e., at beginning of surgery). • b. Thirty minutes after the bolus of DCA has been given, whether or not cardiopulmonary bypass has been discontinued. • c. One hour after discontinuing cardiopulmonary bypass. • d. Six hours after discontinuing cardiopulmonary bypass • e. Twelve hours after discontinuing cardiopulmonary bypass. • f. Twenty four hours after discontinuing cardiopulmonary bypass. At the end of 24 hours, the DCA or placebo infusion was discontinued.
Blood samples were collected from indwelling arterial lines into citrate-containing tubes (0.5 ml blood samples). The samples were spun in the microfuge, the plasma separated, and frozen immediately for later analysis. All plasma samples were stored at -80 degrees centigrade, until further processing. Plasma glucose and lactate were determined using a Sigma glucose kit and a spectrophotometric assay involving lactate dehydrogenase respectively. Plasma fatty acid levels were measured using an ELISA system and WAKO free fatty acid kit.

[4] = test system: patients undergoing elective cardiac bypass grafting surgery (CABG); assay: Mortality in adult CABG study (Example A); assay type: in vivo, human; details: 50mg/kg bolus, 8 DCA-treated adult patients
Protocol: as §1, §2

[5] = test system: pediatric patients requiring heart surgery to correct complex congenital heart lesions; assay: Clinical outcome after DCA bolus and 24 hour infusion: Inotrope Score, ICU time, ventilator time (Example C); assay type: in vivo; design: reduction of Inotrope Scores: concentration or dose not given beside the values; details: compared to placebo; for average decrease in Inotrope Score per patient: over the 24 hour period
Protocol: This study was a randomized, placebo-controlled, double blinded, single surgeon, study of the use of DCA in 51 high-risk pediatric patients requiring heart surgery to correct complex congenital heart lesions.
In this trial, 53 infants were recruited to participate in a study, of which 51 patients met inclusion criteria after parental consent. Two dosing groups resulted from the study team changing the dosing protocol after the data from the initial 10 patients were analyzed. The data from patients number 1 to number 10 was analyzed for DCA therapeutic blood levels and therapeutic effect. A recommendation by the research team was made to increase the bolus dose of DCA and to decrease the infusion dose of DCA to maintain a DCA dose range of 1mM for 24 hours. The intent was to administer the new protocol at patient number 20. The 1997 Epicore power calculations were based on separation of the study groups patients into group A of n = 20 patients and Group B of n = 31 patients
as §3, §4
In both the operating room at the end of cardiopulmonary bypass and in the intensive care unit, parenteral drugs were scored on an hourly basis with 1 point allotted for each level for each bolus or infusion given within the previous hour within the first 24 hours post-operatively. Thus at the end of 24 hours, high scores indicated poorer cardiac function.

patients = assay: Observed side effects of DCA in patients
[6] = Group A, 50mg/kg bolus and 25mg/kg/hour infusion
[7] = Group B, 100mg/kg bolus and 12.5mg/kg/hour infusion

For O=C(O)C(Cl)Cl [DCA, dichloroacetate], the “shortening fraction (echocardiography)” value [1] was 35%, the concentration at 1 h [2] was roughly 1000 µM and the concentration at 24 h ([3]; 50 mg/kg, Example C, 24 hour interval (Group A), read-out: optimum mean level of DCA in plasma) was 2.29 mM. The concentration at 24 h ([3]; 50 mg/kg, Group A protocol (50mg/kg bolus, 25mg/kg/hr infusion), 24 hour interval, initial patients, read-out: plasma concentrations of DCA) was greater than 1 mM, the concentration at 1 h ([3]; 50 mg/kg, Group A protocol (50mg/kg bolus, 25mg/kg/hr infusion), after the first hour interval, initial patients, read-out: plasma concentrations of DCA) was less than 1 mM and the concentration at 12 h ([3]; 50 mg/kg, Group A, 50mg/kg bolus and 25mg/kg/hr infusion, n=9, read-out: Average DCA Plasma Levels, mM at 12 hr) was 1.77 mM. The concentration at 6 h ([3]; 50 mg/kg, Group A, 50mg/kg bolus and 25mg/kg/hr infusion, n=10, read-out: Average DCA Plasma Levels, mM at 6 hr) was 1.13 mM, the concentration at 1 h ([3]; 50 mg/kg, Group A, 50mg/kg bolus and 25mg/kg/hr infusion, n=11, read-out: Average DCA Plasma Levels, mM at 1 hr) was 0.46 mM and the concentration at 24 h ([3]; 50 mg/kg, Group A, 50mg/kg bolus and 25mg/kg/hr infusion, n=11, read-out: Average DCA Plasma Levels, mM at 24 hr) was 2.72 mM. The concentration at 6 h ([3]; 50 mg/kg, Group A, 50mg/kg bolus and 25mg/kg/hr infusion, patients with greatest degree of clinical benefits, m=5, read-out: Average Optimum Mean of DCA Plasma Levels, mM at 6 hr) was 0.916 mM, the concentration at 12 h ([3]; 50 mg/kg, Group A, 50mg/kg bolus and 25mg/kg/hr infusion, patients with greatest degree of clinical benefits, m=5, read-out: Average Optimum Mean of DCA Plasma Levels, mM at 12 hr) was 1.52 mM and the concentration at 24 h ([3]; 50 mg/kg, Group A, 50mg/kg bolus and 25mg/kg/hr infusion, patients with greatest degree of clinical benefits, m=6, read-out: Average Optimum Mean of DCA Plasma Levels, mM at 24 hr) was 2.29 mM. The concentration at 6 h ([3]; 100 mg/kg, Example C, 1 to 6 hour period (Group B), read-out: optimum mean level of DCA in plasma) was 1 mM, the concentration at 6 h ([3]; 100 mg/kg, Group B, 100mg/kg bolus and 12.5 mg/kg/hr infusion, n not given, read-out: Average Optimum Mean of DCA Plasma Levels, mM at 6 hr) was 1 mM and the concentration at 12 h ([3]; 100 mg/kg, Group B, 100mg/kg bolus and 12.5 mg/kg/hr infusion, n not given, read-out: Average Optimum Mean of DCA Plasma Levels, mM at 12 hr) was 1 mM. It also gave a concentration at 24 h ([3]; 100 mg/kg, Group B, 100mg/kg bolus and 12.5 mg/kg/hr infusion, n not given, read-out: Average Optimum Mean of DCA Plasma Levels, mM at 24 hr) of 1 mM, a concentration at 24 h ([3]; 100 mg/kg, Group B, 100mg/kg bolus and 12.5 mg/kg/hr infusion, n=10, read-out: Average DCA Plasma Levels, mM at 24 hr) of 2.23 mM and a concentration at 1 h ([3]; 100 mg/kg, Group B, 100mg/kg bolus and 12.5 mg/kg/hr infusion, n=11, read-out: Average DCA Plasma Levels, mM at 1 hr) of 1.13 mM. It also gave a concentration at 6 h ([3]; 100 mg/kg, Group B, 100mg/kg bolus and 12.5 mg/kg/hr infusion, n=11, read-out: Average DCA Plasma Levels, mM at 6 hr) of 0.894 mM, a concentration at 12 h ([3]; 100 mg/kg, Group B, 100mg/kg bolus and 12.5 mg/kg/hr infusion, n=11, read-out: Average DCA Plasma Levels, mM at 12 hr) of 1.43 mM and a concentration at 6 h ([3]; Example C, 1 to 6 hour interval, read-out: DCA plasma level range) of 0.229 to 2.22 mM. It also gave a concentration at 12 h ([3]; Example C, 12 hour interval, read-out: DCA plasma level range) of 0.38 to 3.07 mM, a concentration at 12 h ([3]; Example C, 12 hour interval, read-out: optimum mean level of DCA in plasma) of 1.52 mM and a concentration at 24 h ([3]; Example C, 24 hour interval, read-out: DCA plasma level range) of 1.74 to 3.9 mM. For the same molecule, the concentration at 1 h ([3]; Group A, 50mg/kg bolus and 25mg/kg/hr infusion, patients with greatest degree of clinical benefits, n not given, read-out: Average Optimum Mean of DCA Plasma Levels, mM at 1 hr) was 1 mM, the concentration at 1 h ([3]; Group B, 100mg/kg bolus and 12.5 mg/kg/hr infusion, patients with greatest degree of clinical benefits, n=7, read-out: Average Optimum Mean of DCA Plasma Levels, mM at 1 hr) was 1.01 mM and the mortalities [4] was “no mortalities”. The “reduction of time in ICU” value ([5]; Group A, 50mg/kg bolus and 25mg/kg/hour infusion, 23 patients) was 60 h, the “decrease of time in ICU” value [5, 6] was 41% and the “decrease of ventilator time” value [5, 6] was 47%. For the same molecule, the “reduction of ventilator time” value [5, 6] was 46 h, the “reduction of Inotrope Scores” value ([5]; Group A, by 1 hour) was 50% and the “reduction of Inotrope Scores” value ([5]; Group A, by 12 hours) was 45%. The “reduction of Inotrope Scores” value ([5]; Group A, by 24 hours) was 38%, the “average decrease in Inotrope Score per patient” value ([5]; Group A) was 44% and the “reduction of time in ICU” value ([5]; Group B, 100mg/kg bolus and 12.5mg/kg/hour infusion, 24 patients) was 50 h. The “decrease of time in ICU” value [5, 7] was 40%, the “decrease of ventilator time” value [5, 7] was 23% and the “reduction of ventilator time” value [5, 7] was 18 h and 19 h. For the same molecule, the “reduction of Inotrope Scores” value ([5]; Group B, by 1 hour) was 57%, the “reduction of Inotrope Scores” value ([5]; Group B, by 12 hours) was 49% and the “reduction of Inotrope Scores” value ([5]; Group B, by 24 hours) was 45%. The “average decrease in Inotrope Score per patient” value ([5]; Group B) was 51%, the side-effects (patients; general observation in patients) was “not have significant side-effects, although some patients experience mild drowsiness” and the “adverse effects of DCA” value (patients; previous (pilot) studies) was “no adverse effects”.
